#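 48-hour exposure; five concentrations; linearly interpolated endpoints. TGI marks complete inhibition of growth.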
# How the values were obtained:
# Experiment in all cases: NCI tumour cell line growth inhibition, 48 h
# [1] = tested on: MCF7 breast
# [2] = tested on: NCI-H460 lung
# [3] = tested on: SNB-78 CNS
# [4] = tested on: KM20L2 colon
# [5] = tested on: P388 leukemia
# [6] = tested on: OVCAR-5 ovarian
# [7] = tested on: MOLT-4 leukemia
# [8] = tested on: SNB-19 CNS
# [9] = tested on: K-562 leukemia
# [10] = tested on: EKVX NSCLC
# [11] = tested on: OVCAR-8 ovarian
# [12] = tested on: HCC-2998 colon
# [13] = tested on: UO-31 renal
# [14] = tested on: OVCAR-4 ovarian
# [15] = tested on: NCI/ADR-RES ovarian
# [16] = tested on: DMS 273 small cell lung
# [17] = tested on: HCT-116 colon
# [18] = tested on: HOP-18 NSCLC
# [19] = tested on: SF-295 CNS
# [20] = tested on: UACC-62 melanoma
# [21] = tested on: U251 CNS
# [22] = tested on: OVCAR-3 ovarian
# [23] = tested on: NCI-H522 lung
# [24] = tested on: M19-MEL melanoma
# [25] = tested on: CCRF-CEM leukemia
# [26] = tested on: DLD-1 colon
# [27] = tested on: SF-539 CNS
# [28] = tested on: P388/ADR leukemia
# [29] = tested on: NCI-H23 lung
# [30] = tested on: SW-620 colon
# [31] = tested on: DMS 114 small cell lung
# [32] = tested on: HOP-62 NSCLC
# [33] = tested on: LOX IMVI melanoma
# [34] = tested on: NCI-H226 lung
# [35] = tested on: A498 renal
# [36] = tested on: CAKI-1 renal
# [37] = tested on: KM12 colon
# [38] = tested on: HCT-15 colon
# [39] = tested on: SN12C renal
# [40] = tested on: IGROV1 ovarian
# [41] = tested on: SK-MEL-5 melanoma
# [42] = tested on: RXF 393 renal
# [43] = tested on: UACC-257 melanoma
# [44] = tested on: HT29 colon
# [45] = tested on: COLO 205 colon
# [46] = tested on: SK-OV-3 ovarian
# [47] = tested on: SK-MEL-28 melanoma
# [48] = tested on: XF 498 CNS
# [49] = tested on: RPMI-8226 leukemia
# [50] = tested on: SNB-75 CNS
# [51] = tested on: MALME-3M melanoma
# [52] = tested on: HL-60(TB) leukemia
# [53] = tested on: SF-268 CNS
# [54] = tested on: HOP-92 NSCLC
# [55] = tested on: SK-MEL-2 melanoma
structure (smiles),measurement,setting,value
CN(C)CCNc1c([N+](=O)[O-])cc2c3c(cccc13)C(=O)N(CCN(C)C)C2=O,TGI,[1],> 20.4 µM
same,TGI,[2],2.26 µM
same,TGI,[3],7.21 µM
same,TGI,[4],5.87 µM
same,TGI,[5],2.62 µM
same,TGI,[6],4.96 µM
same,TGI,[7],3.09 µM
same,TGI,[8],8.33 µM
same,TGI,[9],4.51 µM
same,TGI,[10],4.37 µM
same,TGI,[11],3.27 µM
same,TGI,[12],2.72 µM
same,TGI,[13],4.2 µM
same,TGI,[14],5.84 µM
same,TGI,[15],9.32 µM
same,TGI,[16],2.95 µM
same,TGI,[17],15.3 µM
same,TGI,[18],4.6 µM
same,TGI,[19],6.69 µM
same,TGI,[20],3.35 µM
same,TGI,[21],6.44 µM
same,TGI,[22],5.44 µM
same,TGI,[23],2.79 µM
same,TGI,[24],3.28 µM
same,TGI,[25],> 100 µM
same,TGI,[26],6.02 µM
same,TGI,[27],8.29 µM
same,TGI,[28],4.9 µM
same,TGI,[29],3.89 µM
same,TGI,[30],5.59 µM
same,TGI,[31],3.1 µM
same,TGI,[32],8.49 µM
same,TGI,[33],4.01 µM
same,TGI,[34],> 100 µM
same,TGI,[35],4.34 µM
same,TGI,[36],6.6 µM
same,TGI,[37],> 26.4 µM
same,TGI,[38],5.54 µM
same,TGI,[39],9.28 µM
same,TGI,[40],8.17 µM
same,TGI,[41],4.32 µM
same,TGI,[42],3.69 µM
same,TGI,[43],4.71 µM
same,TGI,[44],5.03 µM
same,TGI,[45],2.71 µM
same,TGI,[46],7.51 µM
same,TGI,[47],12.9 µM
same,TGI,[48],3.92 µM
same,TGI,[49],11.6 µM
same,TGI,[50],4.18 µM
same,TGI,[51],2.28 µM
same,TGI,[52],5.53 µM
same,TGI,[53],4.6 µM
same,TGI,[54],2.36 µM
same,TGI,[55],3.39 µM

# — PubChem BioAssay (NCI)
